The compounds below were run against human mGlu4 (Homo sapiens (Human), UniProt Q14833) (assay: mGlu4 PAM assay in human mGlu4/Gqi5 cells with ~EC20 glutamate (Hamamatsu FDSS)). Details: ~EC20 concentration of glutamate, read-out: mGlu4 PAM EC50.
Format: cell-based
Method: The disclosed compounds and compositions can be evaluated for their ability to act as a potentiatior of metabotropic glutamate receptor activity, in particular mGluR4 activity, by any suitable known methodology known in the art. For example, Chinese Hamster Ovary (CHO) cells transfected with human mGluR4 or HEK cells co-transfected with rat mGluR4 and the G-protein regulated Inwardly Rectifying Potassium channel (GIRK) were plated in clear bottom assay plates for assay in a Hamamatsu FDSS Fluorometric Plate Reader. The cells were loaded with either a Ca2+-sensitive fluorescent dye or the thallium responsive dye and the plates were washed and placed into a suitable kinetic plate reader. For human mGluR4 assays, a fluorescence baseline was established for 3-5 seconds, the disclosed compounds were then added to the cells, and the response in cells was measured. Approximately two and a half minutes later, a concentration of mGluR4 orthosteric agonist (e.g. glutamate, L-AP4, or L-SOP) eliciting approximately 20% (EC20) of the maximal agonist response was added to the cells, and the response was measured. Two minutes later, a concentration of mGluR4 agonist (e.g. glutamate, L-AP4, or L-SOP) eliciting 80% (EC80) of the maximal agonist response was added to the cells, and the response was measured. For rat mGluR4/GIRK experiments, a baseline was established for approximately five seconds, disclosed compounds were added, and either an EC20 or EC80 concentration of agonist was added approximately two and one half minutes later.
The above described assay operated in two modes. In the first mode, a range of concentrations of the disclosed compounds are added to cells, followed by a single fixed concentration of agonist. If the compound acts as a potentiatior, an EC50 value for potentiation and a maximum extent of potentiation by the compound at this concentration of agonist is determined by non-linear curve fitting. If the compound acts as an antagonist, an IC50 value is determined by non-linear curve fitting. In the second mode, several fixed concentrations of the disclosed compounds are added to various wells on a plate, followed by a range in concentrations of agonist for each concentration of disclosed compound. The EC50 values for the agonist at each concentration of compound are determined by non-linear curve fitting. A decrease in the EC50 value of the agonist with increasing concentrations of the sample compound (a leftward shift of the agonist concentration-response curve) is an indication of the degree of mGluR4 potentiation at a given concentration of the sample compound. A decrease in the maximal response of the agonist with increasing concentrations of the sample compounds, with or without a rightward shift in agonist potency, is an indication of the degree of antagonism at mGluR4. The second mode also indicates whether the sample compounds also affect the maximum response to mGluR4 to agonists.

human mGlu4, sequence (Q14833 33-912): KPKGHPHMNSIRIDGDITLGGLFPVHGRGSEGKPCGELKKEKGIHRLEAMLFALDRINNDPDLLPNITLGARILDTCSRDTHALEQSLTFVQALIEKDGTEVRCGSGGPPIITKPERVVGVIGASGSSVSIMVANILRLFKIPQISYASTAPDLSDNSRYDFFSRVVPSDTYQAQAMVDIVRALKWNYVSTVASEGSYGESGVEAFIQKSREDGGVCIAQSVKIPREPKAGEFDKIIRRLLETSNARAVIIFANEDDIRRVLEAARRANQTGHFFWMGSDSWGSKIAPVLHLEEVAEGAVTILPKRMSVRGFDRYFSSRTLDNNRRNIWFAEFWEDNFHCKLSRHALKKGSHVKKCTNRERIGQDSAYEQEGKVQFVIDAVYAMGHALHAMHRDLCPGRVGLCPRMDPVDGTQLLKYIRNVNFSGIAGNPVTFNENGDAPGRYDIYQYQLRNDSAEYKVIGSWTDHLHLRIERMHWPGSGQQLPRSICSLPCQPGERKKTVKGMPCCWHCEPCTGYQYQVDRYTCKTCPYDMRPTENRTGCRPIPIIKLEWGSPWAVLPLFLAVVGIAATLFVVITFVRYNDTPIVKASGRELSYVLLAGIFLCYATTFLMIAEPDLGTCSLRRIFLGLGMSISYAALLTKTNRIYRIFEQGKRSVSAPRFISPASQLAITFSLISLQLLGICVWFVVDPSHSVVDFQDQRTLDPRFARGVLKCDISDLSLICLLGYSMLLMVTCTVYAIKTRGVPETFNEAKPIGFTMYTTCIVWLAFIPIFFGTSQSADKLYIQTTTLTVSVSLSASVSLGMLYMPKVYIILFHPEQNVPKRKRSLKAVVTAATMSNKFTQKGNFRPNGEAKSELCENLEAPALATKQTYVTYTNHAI

EC50 [nM]	Compound
24.6	Cn1nc(OC[C@@H]2COCCO2)c2ccc(NC(=O)c3ncccc3N)cc21 [Compound 130]
991	Cn1nc(OCC2CCOC2)c2ccc(NC(=O)c3cc(F)ccn3)cc21 (stereo not shown) [Compound 98]
431	CC1CC(Oc2nn(C)c3cc(NC(=O)c4ncccc4N)ccc23)CCO1 (stereo not shown) [Compound 74]
462	Cn1nc(OCc2ccccn2)c2ccc(Nc3n[nH]c4cccnc34)cc21 [Compound 17]
170	Cn1nc(OCC2CCCOC2)c2ccc(NC(=O)c3ccccn3)cc21 (stereo not shown) [Compound 85]
629	Cn1nc(OC2COC2)c2ccc(Nc3n[nH]c4cccnc34)cc21 [Compound 22]
50.4	[2H]C([2H])([2H])n1nc(OCC2CCOC2)c2ccc(NC(=O)c3ccccn3)cc21 (stereo not shown) [Compound 110]
187	CC1CC(COc2nn(C)c3cc(NC(=O)c4ncccc4N)ccc23)CC(C)O1 (stereo not shown) [Compound 108]
30.5	Cn1nc(OC[C@@H]2COCCO2)c2ccc(NC(=O)c3ncccc3N)cc21 [Compound 93]
81.2	Cn1nc(OCC2CCOC2)c2ccc(NC(=O)c3ccccn3)cc21 (stereo not shown) [Compound 114]
176	Cn1nc(OCC2COCCO2)c2ccc(Nc3n[nH]c4ncccc34)cc21 (stereo not shown) [Compound 112]
96.4	Cn1nc(OCC2COC2)c2ccc(Nc3n[nH]c4cccnc34)cc21 [Compound 27]
306	Cn1nc(OC2CC3CCC2O3)c2ccc(Nc3n[nH]c4cccnc34)cc21 (stereo not shown) [Compound 37]
84.7	Cn1nc(OC2CCOC[C@H]2F)c2ccc(NC(=O)c3ccccn3)cc21 (stereo partly shown) [Compound 70]
211	Cn1nc(OCC2CCOC2)c2ccc(NC(=O)c3cccc(F)n3)cc21 (stereo not shown) [Compound 95]
293	Cn1nc(OCC2CCOC2)c2ncc(Nc3n[nH]c4cccnc34)cc21 (stereo not shown) [Compound 60]
75.4	Cn1nc(OCC2CCOC2)c2ccc(NC(=O)c3ncccc3N)cc21 (stereo not shown) [Compound 115]
109	Cn1nc(OCC2COC(C)(C)C2)c2ccc(NC(=O)c3ncccc3N)cc21 (stereo not shown) [Compound 102]
87.7	Cn1nc(OCC2CCOCC2)c2ccc(NC(=O)c3ncccc3N)cc21 [Compound 117]
175	Cn1nc(OCC(F)(F)F)c2ccc(Nc3n[nH]c4cccnc34)cc21 [Compound 13]
172	COCCCOc1nn(C)c2cc(Nc3n[nH]c4cccnc34)ccc12 [Compound 30]
131	Cn1nc(OC2CCOC(C)(C)C2)c2ccc(NC(=O)c3ncccc3N)cc21 (stereo not shown) [Compound 68]

EC50 [nM]	Compound
852	Cn1nc(OCCOc2ccc(F)cc2)c2ccc(Nc3n[nH]c4cccnc34)cc21 [Compound 18]
238	Cn1nc(OCCN2CCOCC2)c2ccc(Nc3n[nH]c4cccnc34)cc21 [Compound 21]
599	Cn1nc(OCC2CCOCC2)c2ncc(NC(=O)c3ncccc3O)cc21 [Compound 59]
277	Cn1nc(OCC2CCOC(C)(C)C2)c2ccc(NC(=O)c3ccc(F)cn3)cc21 (stereo not shown) [Compound 106]
214	Cn1nc(OC2CCS(=O)(=O)CC2)c2ccc(Nc3n[nH]c4cccnc34)cc21 [Compound 29]
297	Cn1nc(OCC2COC(C)(C)C2)c2ccc(NC(=O)c3ccc(F)cn3)cc21 (stereo not shown) [Compound 103]
83.6	CC1CC(COc2nn(C)c3cc(NC(=O)c4ccc(F)cn4)ccc23)CC(C)O1 (stereo not shown) [Compound 109]
53	Cn1nc(OCC2CCOC2)c2ccc(NC(=O)c3ncccc3O)cc21 (stereo not shown) [Compound 44]
111	Cn1nc(Oc2cccc(C#N)n2)c2ccc(Nc3n[nH]c4cccnc34)cc21 [Compound 16]
49.6	Cn1nc(OCC2CCOC2)c2ccc(NC(=O)c3ccc(F)cn3)cc21 (stereo not shown) [Compound 91]
272	Cn1nc(OC2CCS(=O)(=O)C2)c2ccc(NC(=O)c3ccccn3)cc21 (stereo not shown) [Compound 53]
27.3	Cn1nc(OC[C@@H]2CCOC2)c2ccc(NC(=O)c3ncccc3N)cc21 [Compound 79]
184	Cn1nc(Oc2ncccc2C#N)c2ccc(Nc3n[nH]c4cccnc34)cc21 [Compound 15]
380	COCCOc1nn(C)c2cc(Nc3n[nH]c4cccnc34)ccc12 [Compound 23]
339	Cc1ccoc1C(=O)Nc1ccc2c(OCC3CCOC3)nn(C)c2c1 (stereo not shown) [Compound 96]
80.2	Cn1nc(OC2CCOC(C)(C)C2)c2ccc(NC(=O)c3ccccn3)cc21 (stereo not shown) [Compound 67]
135	Cn1nc(OCC2CCOC2)c2ccc(Nc3n[nH]c4ncccc34)cc21 (stereo not shown) [Compound 50]
133	Cn1nc(OCCN2CCOCC2)c2ccc(NC(=O)c3ncccc3N)cc21 [Compound 77]
205	Cn1nc(OC[C@H]2COCCO2)c2ccc(NC(=O)c3ccccn3)cc21 [Compound 81]
801	Cn1nc(OCC2CCOC2)c2ccc(NC(=O)c3ncc(F)cc3F)cc21 (stereo not shown) [Compound 100]
335	Cn1nc(OC2CCS(=O)(=O)CC2)c2ccc(Nc3n[nH]c4ncccc34)cc21 [Compound 48]
483	Cn1nc(OCCOc2ccccc2F)c2ccc(Nc3n[nH]c4cccnc34)cc21 [Compound 19]

EC50 [nM]	Compound
30.5	Cn1nc(OCC2CCOC2)c2ccc(Nc3n[nH]c4cccnc34)cc21 (stereo not shown) [Compound 49]
482	Cn1nc(Oc2ccc(C#N)cn2)c2c(Cl)cc(Nc3n[nH]c4cccnc34)cc21 [Compound 25]
820	Cn1nc(OCC2CCOC2)c2ccc(NC(=O)c3cccc(Cl)n3)cc21 (stereo not shown) [Compound 99]
255	Cn1nc(OCCN2CCOCC2)c2ccc(NC(=O)c3ncccc3O)cc21 [Compound 78]
134	CC1CC(Oc2nn(C)c3cc(Nc4n[nH]c5cccnc45)ccc23)CCO1 (stereo not shown) [Compound 65]
575	Cn1nc(O[C@H]2CCOC2)c2ccc(Nc3n[nH]c4ncccc34)cc21 [Compound 33]
181	Cn1nc(OCC2CCCOC2)c2ncc(NC(=O)c3ncccc3N)cc21 (stereo not shown) [Compound 89]
75.6	Cn1nc(OCC2COC(C)(C)C2)c2ccc(NC(=O)c3ccccn3)cc21 (stereo not shown) [Compound 101]
157	Cn1nc(Oc2ccc(C#N)cn2)c2ccc(Nc3n[nH]c4cccnc34)cc21 [Compound 11]
398	Cn1nc(OCCN2CCOCC2)c2ccc(Nc3n[nH]c4ncccc34)cc21 [Compound 66]
417	Cn1nc(OC2CCS(=O)(=O)CC2)c2ccc(NC(=O)c3ccccn3)cc21 [Compound 39]
398	CC1CC(Oc2nn(C)c3cc(NC(=O)c4ccccn4)ccc23)CCO1 (stereo not shown) [Compound 73]
50.5	Cn1nc(OCC2CCOCC2)c2ncc(NC(=O)c3ncccc3N)cc21 [Compound 58]
505	Cn1nc(OCC2CCOC2)c2ccc(NC(=O)c3ncccc3F)cc21 (stereo not shown) [Compound 97]
456	Cn1nc(O[C@H]2CCOC2)c2ccc(Nc3n[nH]c4cccnc34)cc21 [Compound 32]
209	Cn1nc(OCC2CCOCC2)c2ncc(Nc3n[nH]c4cccnc34)cc21 [Compound 61]
169	Cn1nc(OC2CCOC(C)(C)C2)c2ccc(Nc3n[nH]c4cccnc34)cc21 (stereo not shown) [Compound 63]
63	Cn1nc(OCC2CCOCC2)c2ccc(NC(=O)c3ccccn3)cc21 [Compound 116]
873	Cn1nc(OCC2CCOC2)c2ncc(NC(=O)c3ccccn3)cc21 (stereo not shown) [Compound 55]
65.7	Cn1nc(OCc2ccncc2)c2ccc(Nc3n[nH]c4cccnc34)cc21 [Compound 10]

From patent US10508105B2, “Indazole compounds as mGluR4 allosteric potentiators, compositions, and methods of treating neurological dysfunction” (Vanderbilt University, priority 2017, dated 2019)
